One assay has as its target T1, 79 kD hAR protein (Homo sapiens, UniProt P10275).
T1 construct: T7 transcript translated in rabbit reticulocyte lysate; untagged
T1 sequence (P10275 191-920): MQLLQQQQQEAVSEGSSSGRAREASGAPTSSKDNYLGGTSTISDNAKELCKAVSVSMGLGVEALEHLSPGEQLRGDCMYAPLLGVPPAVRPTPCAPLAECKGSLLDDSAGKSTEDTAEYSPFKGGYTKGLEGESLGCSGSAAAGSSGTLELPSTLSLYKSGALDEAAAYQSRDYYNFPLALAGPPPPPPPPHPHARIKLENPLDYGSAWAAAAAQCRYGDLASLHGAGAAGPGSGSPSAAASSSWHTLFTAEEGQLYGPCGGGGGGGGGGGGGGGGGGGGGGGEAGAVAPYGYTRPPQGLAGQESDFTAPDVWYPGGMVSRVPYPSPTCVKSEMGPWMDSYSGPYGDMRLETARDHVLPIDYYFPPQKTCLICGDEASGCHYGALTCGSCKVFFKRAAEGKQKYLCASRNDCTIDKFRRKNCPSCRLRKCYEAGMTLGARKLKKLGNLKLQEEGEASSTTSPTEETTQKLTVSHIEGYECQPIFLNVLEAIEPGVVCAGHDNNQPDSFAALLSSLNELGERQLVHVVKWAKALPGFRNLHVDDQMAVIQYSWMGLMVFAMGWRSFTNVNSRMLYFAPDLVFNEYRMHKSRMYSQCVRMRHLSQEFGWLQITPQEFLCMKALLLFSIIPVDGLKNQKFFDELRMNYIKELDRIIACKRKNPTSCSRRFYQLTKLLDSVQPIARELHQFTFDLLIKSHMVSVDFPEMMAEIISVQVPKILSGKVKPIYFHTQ
As to the kind of experiment: competition of non-radioactive steroids with [^3 H] R1881 binding to hAR made in reticulocyte lysate (hydroxylapatite-filter method).

Another assay has as its system TR2 mRNA. The assay can be described thus: TR2 mRNA level in rat ventral prostate (RNA dot hybridization and Northern blot). The assay is classed as in vivo. As for the experimental part: (§1) Because rat ventral prostate is an androgen-sensitive organ and contains the greatest amount of AR and TR2 mRNA, the effect of androgen depletion and replacement on the mRNA levels was studied by RNA dot hybridization and Northern blot analysis. […] Urol., 10:123 (1972)], was injected into normal rats for from 2 to 6 days. TR2 mRNA levels were then measured by dot hybridization as described above.

Another assay relates to ventral prostate. To be noted: castrated rats; Neri, et al.; cited from earlier work.
The subject of the next assay is human androgen receptor. To be noted: Govindan, et al.; cited from earlier work.
The subject of a further assay is AR mRNA. As to the kind of experiment: AR mRNA level in ventral prostate of castrated rats (RNA dot hybridization and Northern blot). Format: in vivo. To be noted: 5 mg/rat/day. As to the method:
as §1

In the next assay the test system is AR. To be noted: Liao, et al. (1973); cited from earlier work.
Another assay relates to hAR in NIH 3T3 cells. To be noted: 6 of about 100 individual cell lines. The text has this:
The expression of cloned AR-genes was achieved as follows in a eukaryotic system. NIH 3T3 cells, contact-inhibited cells established from NIH Swiss mouse embryo, were co-transfected with hAR cDNA inserted into pBPVMTH vectors as described by Gorman, "DNA Cloning", 2:143-190 D. M. Glover, ed.; (Oxford, Washington, D.C. 1985). Transfected cells were cloned and grown in multiple-well cell culture plates. About 100 individual cell lines were isolated.

The target of assay [1] is AR of rat ventral prostate. To be noted: read-out: binding constant reported previously, Schilling, et al.; cited from earlier work.

Consider `C[C@]12CCC(=O)C=C1CC[C@@H]1[C@@H]2[C@@H](O)C[C@@]2(C)[C@H]1CC[C@]2(O)C(=O)CO` [Hydrocortisone], for which the “competition with [^3 H] R1881 binding (in words)” value on 79 kD hAR protein (79 kD protein, reticulocyte lysate) is listed as “did not compete well”. The remaining activity at 0.05 µM at 79 kD hAR protein (read-out: [^3 H] R1881-bound (% of control)) came to 90%. Take `CC(C)C(=O)Nc1ccc([N+](=O)[O-])c(C(F)(F)F)c1` [Flutamide]: in the assay on TR2 mRNA (normal rats, injected for from 2 to 6 days), the “TR2 mRNA level” value is listed as “increased TR2 mRNA levels”. The “effect on 5α-dihydrotestosterone action on ventral prostate weights” value in the assay with ventral prostate is “antagonizes the effects of 5α-dihydrotestosterone on the ventral prostate weights in castrated rats”. Take `C[C@]12CCC(=O)C[C@@H]1CC[C@@H]1[C@@H]2CC[C@]2(C)[C@@H](O)CC[C@@H]12` [DHT, dihydrotestosterone]: the “binding of tritium-labelled DHT (in words)” value with human androgen receptor is “with high affinity and specificity”. For `C[C@]12CCC(=O)C[C@@H]1CC[C@@H]1[C@@H]2CC[C@]2(C)[C@@H](O)CC[C@@H]12` [5α-dihydrotestosterone, 17β-hydroxy-5α-androstan-3-one], the “TR2 mRNA level” value in the assay on TR2 mRNA (castrated rats, injection, 5 mg/rat/day) is on record as “reduced the TR2 mRNA to the levels of normal rats”. The “AR mRNA level” value with AR mRNA is given as “reduced the AR mRNA level to that of normal rats”.

For the compound `C[C@]1(O)CC[C@H]2[C@@H]3CCC4=CC(=O)CCC4=C3C=C[C@@]21C` [R1881, 17α-methyl-17β-hydroxy-estra-4,9,11-trien-3-one], in the assay with AR, the “AR binding affinity (in words)” value is recorded as “binds AR with high affinity”. The “[^3 H] R1881-bound (% of control)” value at 79 kD hAR protein (reticulocyte lysate har, 0.05 µM) is listed as 10 % of control. `C[C@]1(O)CC[C@H]2[C@@H]3CCC4=CC(=O)CCC4=C3C=C[C@@]21C` [[^3 H] R1881, 17α[^3 H]-methyl-17β-hydroxy-estra-4,9,11-trien-3-one]: the “[^3 H] R1881-binding activity relative to cells transfected with pSV2 vector alone” value with hAR in NIH 3T3 cells is listed as “at least 4 fold”. Also, in assay [1], the Kd is 0.65 nM.

These data come from patent US5614620A, “DNA binding proteins including androgen receptor” (Arch Development Corporation, priority 1993, dated 1997).
